Several values for one entry are separate records, joined by “and”; a condition that tells them apart may be missing. Identical values can stand only once. Like-named read-outs stand apart in the source and are kept apart here. Values belong to the compound of their own block, whether it stands above or below them.
Experiments:
IDE [1] = molecular target: T1, IDE (Homo sapiens, UniProt P14735); conditions: cited from earlier work; for IC50: known IDE inhibitors, no reference given
IDE [2] = molecular target: T1, IDE; experiment: In vitro IDE enzymatic assay (hydrolysis of FRET1, SP1, FAβB, 125I-insulin or insulin by HTRF); format: biochemical; set-up: made in house; host or cells: bacteria; conditions: for IC50: commercially available hydroxamic acids
MMP-8 = conditions: best known target MMP-8; no reference given; cited from earlier work
cathepsin D = molecular target: T2, cathepsin D (Bos taurus, UniProt P80209); experiment: Cathepsin D activity (Cathepsin D Assay Kit); format: biochemical
T2 construct: purchased Sigma-Aldrich
T2 sequence (P80209 45-390): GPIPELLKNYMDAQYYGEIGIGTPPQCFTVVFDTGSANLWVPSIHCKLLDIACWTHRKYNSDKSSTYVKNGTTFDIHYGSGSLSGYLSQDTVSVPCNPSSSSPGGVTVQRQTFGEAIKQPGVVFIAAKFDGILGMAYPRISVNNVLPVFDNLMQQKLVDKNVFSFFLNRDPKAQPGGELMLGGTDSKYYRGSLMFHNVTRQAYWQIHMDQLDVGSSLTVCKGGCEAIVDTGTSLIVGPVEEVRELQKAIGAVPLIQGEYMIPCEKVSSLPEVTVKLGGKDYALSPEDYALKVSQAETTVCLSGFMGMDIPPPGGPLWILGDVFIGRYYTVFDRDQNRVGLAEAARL

CHO-IR cells [3] = tested on: CHO-IR cells
CHO-IR cells [4] = experiment: Cell-based extracellular insulin degradation assay, CHO-IR cells
From the text: (§1) Recombinant human insulin (Sigma) was applied to CHO-IR cells or HeLa cells grown to near-confluency on 96-well plates under normal cell culture conditions, and its disappearance over time in the presence of different concentrations of IDE inhibitors or vehicle was quantified using a HTRF-based insulin assay (CIS-Bio). CHO-IR cells were a generous gift from Dr. Michel Bernier (National Instutute on Aging) and HeLa cells were purchased from American Type Culture Collection.

CHO-IR cells [5] = experiment: Live-cell imaging of intracellular insulin catabolism (FITC-ins); format: cell-based; conditions: FITC-ins-loaded CHO-IR cells, Ii1 10 µM, 22°C
Procedure: CHO-IR cells were cultured on poly-D-lysine glass bottom culture dishes (MatTek Corp.), loaded with FITC-ins (2 µM; Invitrogen) for 2 h at 37°C, washed with Hank's balanced salt solution (HBSS), then imaged consecutively at fixed intervals by fluorescence microscopy at 22°C. Intracellular and extracellular fluorescence in the resulting images was quantified using MetaMorph software according to manufacturer's recommendations (Molecular Devices).

[6] = tested on: IR autophosphorylation (Tyr 1146) in CHO-IR cells; experiment: IR autophosphorylation assay (ELISA); format: cell-based, human; conditions: CHO-IR cells cold-loaded with insulin, 10 µM inhibitor, 5 min at 37°C
Procedure: CHO-IR cells were grown to near confluency in 6-well plates, washed, then starved for 6 h in insulin-free medium (DMEM/0.1% BSA). Cells were then cold-loaded with human insulin essentially as described. Briefly, after cooling the cells to 4°C, the medium was replaced with ice-cold HBSS/1% BSA supplemented with insulin (10 nM), incubated at 4°C for 1 h, washed 3 times with ice-cold HBSS/1% BSA. After addition of ice-cold HBSS/1% BSA supplemented with IDE inhibitors (10 µM) or DMSO, the cells were incubated at 37°C for 5 min, then rapidly cooled on ice. Cell lysates were harvested using manufacturer-provided cell-lysis buffer (Cell Signaling Technology) supplemented with additional phosphatase inhibitors (Millipore). IR autophosphorylation (Tyr 1146) and total IR levels were quantified by ELISAs (Cell Signaling Technology), and confirmed by western blotting with the same antibodies used for ELISAs or GAPDH as a loading control.

HeLa cells = experiment: Cell-based extracellular insulin degradation assay, HeLa cells
From the text: as §1

CHO-IR cells [7] = experiment: Quantification of prebound 125I-insulin catabolism; format: cell-based; conditions: 10 µM inhibitor, 5 min at 37°C
Procedure: Confluent monolayers of CHO-IR cells grown in 6-well culture dishes were cold loaded with 240 pM ^125I-insulin for 1 h and washed 3 times with ice-cold HBSS/1% BSA. […] Following harvesting of cells by scraping, ^125I levels were quantified by gamma counter (Beckman).

MMP-13 = conditions: best known target MMP-13; no reference given; cited from earlier work
MMP-2 = conditions: best known target MMP-2; no reference given; cited from earlier work
MMP-3 = conditions: best known target MMP-3; no reference given; cited from earlier work
IDE [8] = molecular target: T1, IDE; experiment: High-throughput screening, Aβ degradation assay; format: biochemical; conditions: high-throughput screening hit
From the text: The few IDE inhibitors currently in use are generally non-selective and/or highly toxic, and all suffer from extremely low potency, requiring mM concentrations to achieve complete inhibition (Table S1). To develop improved inhibitors of IDE, we initially conducted high-throughput screening on ∼115,000 compounds, using a previously developed Aβ degradation assay. Although several inhibitors were discovered, most of these were either toxic, thiol-alkylating compounds [18] […] Among the remaining inhibitors, just a single compound, known as nullscript

IDE [9] = molecular target: T1, IDE; experiment: Cell-based assays (not shown)
TACE = conditions: best known target TACE; no reference given; cited from earlier work
[10] = focused library of retro-inverso peptide hydroxamates Xaa-Arg-Tyr, modification at P1', Fig. 2B, read-out: Ki

T1 sequence (P14735 whole entry): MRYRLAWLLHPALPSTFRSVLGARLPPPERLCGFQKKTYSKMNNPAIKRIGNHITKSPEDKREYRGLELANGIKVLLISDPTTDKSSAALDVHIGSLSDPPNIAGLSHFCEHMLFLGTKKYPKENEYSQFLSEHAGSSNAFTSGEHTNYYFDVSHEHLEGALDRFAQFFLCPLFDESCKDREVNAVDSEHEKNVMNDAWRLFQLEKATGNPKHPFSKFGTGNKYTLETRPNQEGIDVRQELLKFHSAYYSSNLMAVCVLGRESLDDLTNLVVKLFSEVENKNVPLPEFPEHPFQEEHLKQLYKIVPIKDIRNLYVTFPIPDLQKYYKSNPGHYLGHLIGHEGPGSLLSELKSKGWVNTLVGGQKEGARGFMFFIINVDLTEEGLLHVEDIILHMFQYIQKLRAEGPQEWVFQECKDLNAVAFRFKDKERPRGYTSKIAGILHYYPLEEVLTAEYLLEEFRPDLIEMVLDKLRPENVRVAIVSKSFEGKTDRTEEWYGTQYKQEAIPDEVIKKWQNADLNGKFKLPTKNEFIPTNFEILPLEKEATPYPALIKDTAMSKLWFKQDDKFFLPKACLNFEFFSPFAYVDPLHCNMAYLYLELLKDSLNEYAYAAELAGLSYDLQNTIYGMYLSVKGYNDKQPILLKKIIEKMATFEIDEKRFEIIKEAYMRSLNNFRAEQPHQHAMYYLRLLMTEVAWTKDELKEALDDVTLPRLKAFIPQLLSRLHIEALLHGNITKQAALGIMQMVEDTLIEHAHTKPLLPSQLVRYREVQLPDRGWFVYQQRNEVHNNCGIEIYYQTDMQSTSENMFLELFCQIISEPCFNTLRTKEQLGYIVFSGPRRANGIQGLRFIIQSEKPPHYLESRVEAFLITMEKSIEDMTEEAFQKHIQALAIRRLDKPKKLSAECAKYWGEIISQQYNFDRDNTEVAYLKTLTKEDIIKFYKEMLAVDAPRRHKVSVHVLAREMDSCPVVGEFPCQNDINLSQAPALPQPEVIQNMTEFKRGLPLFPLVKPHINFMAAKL

Structure (SMILES): c1cnc2c(c1)ccc1cccnc12 [1,10 phenanthroline]
- IC50 (IDE [1]): 300 µM

Structure (SMILES): N=C(N)NCCC[C@@H](NC(=O)[C@H](N)Cc1ccc(O)cc1)C(=O)N[C@@H](CC(=O)NO)Cc1cccc2ccccc12 [1-naphthylalanine]
- Ki (IDE [2]; [10]): 700 nM

Structure (SMILES): N=C(N)NCCC[C@@H](NC(=O)[C@H](N)Cc1ccc(O)cc1)C(=O)N[C@@H](CC(=O)NO)Cc1ccc2ccccc2c1 [2-naphthylalanine]
- gain in potency relative to Phe at P1' (IDE [2]; retro-inverso library): ~100 fold

Structure (SMILES): N=C(N)NCCC[C@@H](NC(=O)[C@H](N)Cc1ccc(O)cc1)C(=O)N[C@@H](CC(=O)NO)Cc1cccc(F)c1 [3-fluorophenylalanine]
- Ki (IDE [2]; [10]): 7000 nM

Structure (SMILES): CC(C)(C)c1ccc(C[C@H](CC(=O)NO)NC(=O)[C@@H](CCCNC(=N)N)NC(=O)[C@H](N)Cc2ccc(O)cc2)cc1 [4-(tert-butyl)-phenylalanine]
- Ki (IDE [2]; [10]): 16000 nM

Structure (SMILES): N=C(N)NCCC[C@@H](NC(=O)[C@H](N)Cc1ccc(O)cc1)C(=O)N[C@@H](CC(=O)NO)Cc1ccc(F)cc1 [4-fluorophenylalanine]
- Ki (IDE [2]; [10]): 7000 nM

Structure (SMILES): O=C(O)CN(CCN(CC(=O)O)CC(=O)O)CC(=O)O [EDTA]
- inhibition of IDE (IDE [1]; ref [18], [40]): does not inhibit IDE except after prolonged incubation

Structure (SMILES): CNC(=O)[C@H](Cc1c[nH]c2ccccc12)NC(=O)[C@@H](CC(=O)NO)CC(C)C [GM6001 (Galardin), reference compound]
- IC50 (IDE [2]): 6 µM

Structure (SMILES): N=C(N)NCCC[C@H](NC(=O)[C@@H](CC(=O)NO)Cc1ccc2ccccc2c1)C(=O)N[C@@H](Cc1c[nH]c2ccccc12)C(=O)N[C@@H](CCC(=O)O)C(N)=O [Ii1]
- inhibition of cathepsin D (cathepsin D): not
- toxicity (CHO-IR cells [3]): No toxicity
- IC50 for inhibition of degradation of extracellular insulin (CHO-IR cells [4]): comparable to that obtained in vitro
- insulin catabolism (progress curve) (CHO-IR cells [4]; Ii1 10 µM): completely inhibited
- intra- and extracellular FITC fluorescence over time (CHO-IR cells [5]): remained essentially constant
- Hill slopes for inhibition (IDE [2]; all substrates tested): < 1
- Ki (IDE [2]; conventional peptide hydroxamates, Fig. 1, read-out: Ki): 1.7 nM and ~1.7 nM
- mode of inhibition (IDE [2]; hydrolysis of Aβ): purely competitive
- mode of inhibition (IDE [2]; hydrolysis of insulin): purely competitive
- Ki (IDE [2]; ki^app, Substrate: 125I-Ins): 16.3 ± 4.2 nM
- Ki (IDE [2]; ki^app, Substrate: FAβB): 15.7 ± 2 nM
- Ki (IDE [2]; ki^app, Substrate: HTRF-Ins): 16.6 ± 3.1 nM
- Ki (IDE [2]; ki^app, Substrate: SP1): 2.55 ± 0.84 nM
- insulin-stimulated IR autophosphorylation [6]: consistently potentiated
- IC50 for inhibition of degradation of extracellular insulin (HeLa cells): comparable to that obtained in vitro
- insulin catabolism (progress curve) (HeLa cells; Ii1 10 µM): completely inhibited
- decrease of prebound 125I-insulin (CHO-IR cells [7]): inhibited completely

Structure (SMILES): CC(=O)N[C@H](CCC(=O)NCCNc1cccc2c(S(=O)(=O)O)cccc12)C(=O)N[C@H](Cc1ccc(O)cc1)C(=O)N[C@H](Cc1ccc(C(=O)c2ccccc2)cc1)C(=O)N[C@@H](CC(=O)NO)Cc1ccc2ccccc2c1 [ML3-XF, Hx-2Nap-Bpa-Tyr-Glu(EDANS)-Ac]
- insulin-stimulated IR autophosphorylation [6]: consistently potentiated
- decrease of prebound 125I-insulin (CHO-IR cells [7]): inhibited completely

- IC50 (IDE [2]): > 100 µM
Structure (SMILES): CNC(=O)C(CCc1ccccc1)NC(=O)C(CC(=O)NO)CC(C)C (stereo not shown) [MMP Inhibitor III, reference compound]
- IC50 (MMP-13): 0.1 nM

- IC50 (IDE [2]): > 100 µM
Structure (SMILES): O=C(NO)[C@@H](Cc1ccccc1)NS(=O)(=O)c1ccc(-c2ccccc2)cc1 [MMP-2/9 Inhibitor II, reference compound]
- IC50 (MMP-2): 17 nM

Structure (SMILES): COc1ccc(S(=O)(=O)N(CC(=O)NO)CC(C)C)cc1 [MMP-3 Inhibitor II, reference compound]
- IC50 (MMP-3): 130 nM
- IC50 (IDE [2]): > 100 µM

Structure (SMILES): N#Cc1ccc(-c2ccc(OCCC(=O)NO)cc2)cc1 [MMP-3 Inhibitor VII, reference compound]
- IC50 (MMP-3): 25 nM
- IC50 (IDE [2]): > 100 µM

- IC50 (IDE [2]): > 100 µM
Structure (SMILES): COc1ccc(S(=O)(=O)N2Cc3ccccc3C[C@@H]2C(=O)NO)cc1 [MMP-8 Inhibitor I, reference compound]
- IC50 (MMP-8): 4 nM

Structure (SMILES): CCN1C(=O)C=CC1=O [N-ethylmaleimide]
- IC50 (IDE [1]): 220 µM

- IC50 values (IDE [8]): submicromolar
- IC50 (IDE [2]): 0.9 µM
- effect in cell-based assays (IDE [9]): ineffective
Structure (SMILES): O=C(CCCN1C(=O)c2cccc3cccc(c23)C1=O)NO [Nullscript]

- IC50 (IDE [2]): 9 µM
Structure (SMILES): CC(C)C[C@H](CC(=O)NO)C(=O)N[C@@H](Cc1ccc2ccccc2c1)C(=O)N[C@@H](C)C(N)=O [TAPI-0, reference compound]
- IC50 (MMP-13): 0.2 nM

- IC50 (IDE [2]): 3 µM
Structure (SMILES): CC(C)C[C@H](CC(=O)NO)C(=O)N[C@@H](Cc1ccc2ccccc2c1)C(=O)N[C@@H](C)C(=O)NCCN [TAPI-1, reference compound]
- IC50 (TACE): 100 nM

- IC50 (IDE [2]): 11 µM
Structure (SMILES): CC(C)C[C@H](CC(=O)NO)C(=O)N[C@H](C(=O)N[C@@H](C)C(=O)NCCN)C(C)(C)C [TAPI-2, reference compound]
- IC50 (TACE): 5000 nM

Structure (SMILES): N=C(N)NCCC[C@@H](NC(=O)[C@H](N)Cc1ccc(O)cc1)C(=O)N[C@@H](CC(=O)NO)C(c1ccccc1)c1ccccc1 [diphenylalanine]
- Ki (IDE [2]; [10]): > 500000 nM
